Measurements from patent publication US8288371B2, “Ortho pyrrolidine, benzyl-substituted heterocycle CCR1 antagonists for autoimmune diseases and inflammation” (Pharmacopeia, LLC, priority 2007, dated 2012).

target: T1, human CCR1 (Homo sapiens, UniProt P32246); assay: CCR1 binding protocol (SPA, [125I]-MIP-1α displacement); settings: cell membrane expressing human CCR1, 0.1 nM [125I]-MIP-1α, 4 hours at ambient temperature; read-out: Relative potency (IC50)
T1 sequence (P32246 1-355): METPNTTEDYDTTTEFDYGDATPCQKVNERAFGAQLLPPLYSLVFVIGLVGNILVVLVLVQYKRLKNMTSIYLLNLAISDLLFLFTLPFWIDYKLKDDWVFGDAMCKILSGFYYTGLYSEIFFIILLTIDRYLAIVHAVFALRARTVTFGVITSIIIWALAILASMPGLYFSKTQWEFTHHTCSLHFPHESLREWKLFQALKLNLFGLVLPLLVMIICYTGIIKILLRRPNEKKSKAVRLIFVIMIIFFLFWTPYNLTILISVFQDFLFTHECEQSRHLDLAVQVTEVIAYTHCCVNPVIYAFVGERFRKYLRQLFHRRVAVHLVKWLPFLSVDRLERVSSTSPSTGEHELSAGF
Method: The following protocol was used to test compounds for CCR1 binding. A mixture, including scintillation proximity assay (SPA) beads and cell membrane expressing human CCR1, was prepared in assay buffer (130 mM NaCl+5 mM KCl+1 mM MnCl+50 mM Tris HCl at pH 7.4+0.1% bovine serum albumin (BSA)) at the ratio of 50 μg/ml membrane to 10 mg/ml SPA beads. 10 μl of the mixture was transferred to each well of a 384-well assay plate yielding a final concentration for the membrane and SPA beads of 0.5 μg/well and 100 μg/well, respectively
To generate different concentrations of the test compound, compound stocks were prepared using 10 step ½ log dilutions with a high concentration of 10 mM in DMSO and the lowest concentration being DMSO only without compound. An intermediate 40× dilution was then prepared in the assay buffer. The compound was then transferred at 10 μl/well to the assay plate. 0.5 nM [^125 I]-labeled macrophage inflammatory protein-1α (MIP-1α, an endogenous CCR1 ligand) in the assay buffer was transferred to the assay plate at 5 μl/well, for a final ligand concentration of 0.1 nM. The assay plate was then centrifuged at 2500 rpm for 2 minutes and incubated for 4 hours at ambient temperature, at which time the raw data was recorded using microbeta. The IC50 was then calculated using Graphpad Prism.

Q: Which IC50 does the source give for `Cc1nnc([C@H]2CCCN2C(=O)NCc2ccc(C(F)(F)F)cc2)n1Cc1ccc(Cl)cc1` [Compound 130] here?
A: < 50 nM

Q: Which IC50 does the source give for `O=C(Nc1ccc2occc2c1)N1CCC[C@@H]1c1nncn1Cc1ccc(Cl)cc1` [Compound 121] here?
A: 50 to 500 nM

Q: For `O=C(Nc1ccc(Cl)c(C(F)(F)F)c1)N1CCC[C@@H]1c1ncnn1Cc1ccc(Cl)cc1` [Compound 448], which IC50 is on record?
A: 50 to 500 nM

Q: For `Cc1onc(-c2ccc(Cl)cc2)c1NC(=O)N1CCC[C@@H]1c1nnc(C)n1Cc1ccc(Cl)cc1` [Compound 293], which IC50 is on record?
A: < 50 nM

Q: Which IC50 does the source give for `O=C(N[C@@H]1CCS(=O)(=O)c2ccc(Cl)cc21)N1CCC[C@@H]1c1nnc(CO)n1Cc1ccc(Cl)cc1` [Compound 370] here?
A: < 50 nM

Q: For `O=C(NC1CCCOc2ccccc21)N1CCC[C@@H]1c1ncnn1Cc1ccc(Cl)cc1` (some centres unmarked) [Compound 89], which IC50 is on record?
A: < 50 nM

Q: Which IC50 does the source give for `Cc1nnc([C@H]2CCCN2C(=O)Nc2ccc(Cl)cc2F)n1Cc1ccc(F)cc1` [Compound 367] here?
A: 50 to 500 nM

Q: Which IC50 does the source give for `Cc1nnc([C@H]2CCCN2C(=O)N[C@H]2CCOc3c2cccc3C(F)(F)F)n1Cc1ccc(Cl)cc1` [Compound 199] here?
A: < 50 nM

Q: `Cc1nnc([C@H]2CCCN2C(=O)Oc2ccc(F)cc2)n1Cc1ccc(Cl)cc1` [Compound 176] was tested. Which IC50 did it give?
A: 500 to 5000 nM

Q: For `CC[C@H](NC(=O)N1CCC[C@@H]1c1nnc(C)n1Cc1ccc(Cl)cc1)c1ccc(C(F)(F)F)nc1C` [Compound 627], which IC50 is on record?
A: < 50 nM

Q: Which IC50 does the source give for `Cc1nnc([C@H]2CCCN2C(=O)N[C@H]2CCOc3cc(C(F)(F)F)ccc32)n1Cc1cccc(Br)c1` [Compound 540] here?
A: 500 to 5000 nM

Q: `COC(=O)c1ccc(C(F)(F)F)c(NC(=O)N2CCC[C@@H]2c2nnc(C)n2Cc2ccc(Cl)cc2)c1` [Compound 317] was tested. Which IC50 did it give?
A: 50 to 500 nM

Q: For `Cc1onc(-c2ccccc2Cl)c1NC(=O)N1CCC[C@@H]1c1nnc(C)n1Cc1ccc(Cl)cc1` [Compound 276], which IC50 is on record?
A: < 50 nM

Q: `Cc1onc(-c2ccccc2)c1NC(=O)N1C[C@@H](O)C[C@@H]1c1nnc(C)n1Cc1ccc(Cl)cc1` [Compound 433] was tested. Which IC50 did it give?
A: < 50 nM

Q: For `Cc1nc(C(F)(F)F)ccc1NC(=O)N1CCC[C@@H]1c1nnc(C)n1Cc1cccc(Cl)c1` [Compound 538], which IC50 is on record?
A: 500 to 5000 nM

Q: For `Cc1nnc([C@H]2CCCN2C(=O)Nc2ccc(Cl)cc2C(F)(F)F)n1Cc1ccc(Cl)cc1` [Compound 405], which IC50 is on record?
A: < 50 nM

Q: With `Cc1nnc([C@H]2CCCN2C(=O)Nc2ccc(Cl)c(S(C)(=O)=O)c2)n1Cc1ccc(Cl)cc1` [Compound 443] as the molecule, how does the IC50 read?
A: 50 to 500 nM

Q: With `Cc1noc([C@H]2CCCN2C(=O)Nc2ccc(C(F)(F)F)cc2)c1Cc1ccc(Cl)cc1` [Compound 6] as the molecule, how does the IC50 read?
A: 500 to 5000 nM

Q: `Cc1nnc([C@H]2CCCN2C(=O)N[C@H]2CCCOc3ccccc32)n1Cc1ccc(Cl)cc1` [Compound 261] was tested. Which IC50 did it give?
A: 50 to 500 nM

Q: With `Cc1ccc(NC(=O)N2CCC[C@@H]2c2nnc(C)n2Cc2ccc(Cl)cc2)c(C(N)=O)c1` [Compound 244] as the molecule, how does the IC50 read?
A: 50 to 500 nM

Q: `Cc1nnc([C@H]2CCCN2C(=C[N+](=O)[O-])Nc2ccc(C(F)(F)F)cc2)n1Cc1ccc(Cl)cc1` [Compound 257] was tested. Which IC50 did it give?
A: 500 to 5000 nM

Q: `CC[C@@H](NC(=O)N1C[C@@H](O)C[C@@H]1c1nnc(C)n1Cc1ccc(Cl)cc1)c1ccc(C)o1` [Compound 495] was tested. Which IC50 did it give?
A: 50 to 500 nM

Q: For `CNC(=O)c1cccc(C)c1NC(=O)N1CCC[C@@H]1c1nnc(C)n1Cc1ccc(Cl)cc1` [Compound 212], which IC50 is on record?
A: < 50 nM

Q: For `COC(=O)c1cc(NC(=O)N2CCC[C@@H]2c2nnc(C)n2Cc2ccc(Cl)cc2)c(C)cc1C` [Compound 318], which IC50 is on record?
A: < 50 nM

Q: How did the IC50 turn out when `Cc1nnc([C@H]2C[C@@H](O)CN2C(=O)N[C@H]2CCOc3cc(C#N)ccc32)n1Cc1ccc(Cl)cc1` [Compound 522] was run?
A: < 50 nM

Q: `Cc1nnc([C@H]2CCCN2C(=O)NC(c2ccccc2)c2ccc(Cl)cc2)n1Cc1ccc(Cl)cc1` (some centres unmarked) [Compound 129] was tested. Which IC50 did it give?
A: < 50 nM

Q: Which IC50 does the source give for `Cc1nc([C@H]2CCCN2C(=O)N[C@H]2CCOc3cc(C(F)(F)F)ccc32)n(Cc2ccc(Cl)cc2)n1` [Compound 96] here?
A: 500 to 5000 nM

Q: `Cc1nc(C(F)(F)F)ccc1NC(=O)N1CCC[C@@H]1c1nnc(C)n1Cc1cccc(Br)c1` [Compound 553] was tested. Which IC50 did it give?
A: 500 to 5000 nM

Q: With `Cc1nnc([C@H]2CCCN2C(=O)Nc2ccc3c(c2)S(=O)(=O)C=C3)n1Cc1ccc(Cl)cc1` [Compound 430] as the molecule, how does the IC50 read?
A: 50 to 500 nM

Q: Which IC50 does the source give for `Cc1nnc([C@H]2CCCN2C(=O)N[C@H]2CCc3ccccc32)n1Cc1ccc(Cl)cc1` [Compound 155] here?
A: 50 to 500 nM

Q: For `Cc1cc(Cl)cc(C)c1NC(=O)N1CCC[C@@H]1c1ncnn1Cc1ccc(Cl)cc1` [Compound 66], which IC50 is on record?
A: 50 to 500 nM

Q: With `Cc1nnc([C@H]2CCCN2C(=O)N[C@H]2CCc3ccc(C(F)(F)F)cc32)n1Cc1ccc(Cl)cc1` [Compound 171] as the molecule, how does the IC50 read?
A: 50 to 500 nM

Q: How did the IC50 turn out when `Cc1noc(C)c1CC(=O)N1CCC[C@@H]1c1ncnn1Cc1ccc(Cl)cc1` [Compound 631] was run?
A: 500 to 5000 nM

Q: `Cc1nnc([C@H]2CCCN2C(=O)Nc2ccc(C(F)(F)F)cc2Cl)n1Cc1ccc(Cl)cc1` [Compound 154] was tested. Which IC50 did it give?
A: 50 to 500 nM

Q: How did the IC50 turn out when `Cc1nnc([C@H]2CCCN2C(=O)CC2CCOc3cc(C(F)(F)F)ccc32)n1Cc1ccc(Cl)cc1` (some centres unmarked) [Compound 515] was run?
A: < 50 nM

Q: With `Cc1nnc([C@H]2CCCN2C(=O)N[C@H]2CCOc3cc(Cl)ccc32)n1Cc1ccc(Cl)cc1` [Compound 113] as the molecule, how does the IC50 read?
A: < 50 nM

Q: For `Cc1nnc([C@H]2CCCN2C(=O)N[C@H]2CCc3cc(Cl)ccc32)n1Cc1ccc(Cl)cc1` [Compound 127], which IC50 is on record?
A: < 50 nM

Q: For `Cc1nnc([C@H]2CCCN2C(=O)NC2CCCCCC2)n1Cc1ccc(Cl)cc1` [Compound 186], which IC50 is on record?
A: 50 to 500 nM

Q: Which IC50 does the source give for `Cc1c(Cl)nc([C@H]2CCCN2C(=O)Nc2ccc(Cl)cc2F)n1Cc1ccc(Cl)cc1` [Compound 457] here?
A: 50 to 500 nM

Q: `Cc1nnc([C@H]2CCCN2C(=O)Nc2ccc(Cl)cc2S(C)(=O)=O)n1Cc1ccc(Cl)cc1` [Compound 434] was tested. Which IC50 did it give?
A: < 50 nM

Q: How did the IC50 turn out when `Cc1nnc([C@H]2CCCN2C(=O)NCC2(c3cccs3)CCOCC2)n1Cc1ccc(Cl)cc1` [Compound 623] was run?
A: 500 to 5000 nM

Q: With `NC(=O)c1nnc([C@H]2CCCN2C(=O)Nc2ccc(Cl)cc2F)n1Cc1ccc(Cl)cc1` [Compound 490] as the molecule, how does the IC50 read?
A: 500 to 5000 nM

Q: With `Cc1nnc([C@H]2CCCN2C(=O)N[C@@H](C)c2cccnc2)n1Cc1ccc(Cl)cc1` [Compound 124] as the molecule, how does the IC50 read?
A: < 50 nM

Q: `C[C@H](NC(=O)N1CCC[C@@H]1c1nnc(CO)n1Cc1ccc(Cl)cc1)c1ccc(Cl)cc1` [Compound 402] was tested. Which IC50 did it give?
A: < 50 nM

Q: Which IC50 does the source give for `Cc1onc(-c2ccccc2F)c1NC(=O)N1CCC[C@@H]1c1nnc(C)n1Cc1ccc(Cl)cc1` [Compound 291] here?
A: < 50 nM

Q: How did the IC50 turn out when `CC(C)(NC(=O)N1CCC[C@@H]1c1ncncc1Cc1ccc(Cl)cc1)c1ccccc1` [Compound 28] was run?
A: 500 to 5000 nM

Q: `Cc1noc(C)c1CC(=O)N1CCC[C@@H]1c1nncn1Cc1ccc(Cl)cc1` [Compound 629] was tested. Which IC50 did it give?
A: 50 to 500 nM

Q: Which IC50 does the source give for `Cc1nnc([C@H]2CCCN2C(=O)Nc2c(F)cc(F)cc2F)n1Cc1ccc(Cl)cc1` [Compound 473] here?
A: < 50 nM

Q: For `COC(=O)c1ccc(Cl)c(NC(=O)N2CCC[C@@H]2c2nnc(C)n2Cc2ccc(Cl)cc2)c1` [Compound 286], which IC50 is on record?
A: < 50 nM

Q: For `N#Cc1ccc2c(c1)OCCC2NC(=O)N1CCC[C@@H]1c1ncnn1Cc1ccc(Cl)cc1` (some centres unmarked) [Compound 72], which IC50 is on record?
A: 50 to 500 nM

Q: For `Cc1ccc(NC(=O)N2CCC[C@@H]2c2nnc(C)n2Cc2ccc(Cl)cc2)c(C(=O)N(C)C)c1` [Compound 295], which IC50 is on record?
A: 50 to 500 nM

Q: With `Cc1onc(-c2cccnc2)c1NC(=O)N1CCC[C@@H]1c1nnc(C)n1Cc1ccc(Cl)cc1` [Compound 306] as the molecule, how does the IC50 read?
A: < 50 nM

Q: `Cc1cc(C(F)(F)F)ccc1NC(=O)N1CCC[C@@H]1c1ncnn1Cc1ccc(Cl)cc1` [Compound 63] was tested. Which IC50 did it give?
A: < 50 nM
